Here are results for 17 molecules from patent publication US20180037601A1, “Nucleoside-Based Anti-Bacterial and Anti-Protozoan Drugs” (UTI Limited Partnership, priority 2015, published 2018).

For data set [1], the system named is L. donovani. As to conditions: literature ref. 55; cited from earlier work.
The test system of data set [2] is T.b. rhodesiense. As to conditions: literature ref. 30; cited from earlier work.
Data set [3] has as its system T.b gambiense. The following applies: literature ref. 30; cited from earlier work.
Data set [4] has as its system Trypanosoma brucei rhodesiense (STIB900). Put plainly: In vitro growth inhibition assay of T.b. rhodesiense (STIB900), Alamar blue. The class given is cell-based. The text has this:
(§1) Each of the nucleoside analogues was examined for in vitro activity against four parasites, T.b. rhodesiene, T. cruzi, L. donovoni and P. falciparum, as well as for cytotoxicity toward the L6 rat myoblast cell line.
(§2) All IC50 values are expressed as micromolar. Cytotoxicity (L6 rat myoblast cells); average of duplicate determinations. Trypanosoma brucei rhodesiense (STIB900); average of duplicate determinations. Selectivity index for T.b. rhodesiense (SIr); expressed as the ratio [IC50 (L6/IC50 (T.b. rhodesiense)]. Plasmodium falciparum ([…], resistant to chloroquine); average of duplicate determinations. Selectivity index for P. falciparum (SIp), expressed as the ratio [IC50 (L6/IC50 (P. falciparum)]. Leishmania donovani (MHOM/SD/62/IS-CL2D) axenic amastigotes; average of duplicate determinations. Selectivity index for L. donovani (SIL), expressed as the ratio [IC50 (L6/IC50 (L. donovani)]. Trypanosoma cruzi; average of duplicate determinations. Selectivity index for T. cruzi (SIC), expressed as the ratio [IC50(L6/IC50(T. cruzi)]. IA. Nucleoside analogs designed to be activated via Pathway I. IB. Nucleoside analogs designed to be activated via Pathway II. Phth=phthalimido.
Preparation of compounds for assay. Compounds were dissolved in 100% dimethyl sulfoxide (DMSO) and diluted in the culture medium prior to the in vitro assay. The DMSO concentration never exceeded 1% in the in vitro Alamar Blue assays at the highest drug concentration.
In vitro growth inhibition assay of T.B. rhodesiense (STIB900). IC50 values were determined using the Alamar blue assay and were carried out twice independently and in duplicate as described.^57

The subject of data set [5] is Leishmania donovani (MHOM/SD/62/IS-CL2D) axenic amastigotes. Put plainly: In vitro growth inhibition assay of L. donovani axenic amastigotes, CellTiter. The format is cell-based. As to conditions: for IC50: Leishmania donovani, axenic amastigotes, average of duplicate determinations, read-out: IC50 against L. donovani.
From the text: as §1, §2
In vitro growth inhibition assay of L. Donovani. Axenic amastigotes of L. Donovaniwere adapted from promastigotes and grown in the amastigote medium previously described.^60 The tetrazolium dye-based CellTiter reagent (Promega, Madison, Wis.) was used to assess parasite growth.^61

Data set [6] can be described thus: In vitro cytotoxicity assay (L6 rat myoblast cells), Alamar blue. As to conditions: read-out: Cytotoxicity IC50 toward L6 mammalian cell line. The class given is cell-based.
From the text: as §1, §2
In vitro cytoxicity assay (L6 Rat Myoblast cells). IC50 values were determined using the Alamar blue assay^62 and were carried out twice independently.

Data set [7] has as its system Plasmodium falciparum (KI), erythrocytic stages. Put plainly: In vitro growth inhibition assay of P. falciparum, [3H]-hypoxanthine incorporation. The class given is cell-based.
From the text: as §1, §2
In vitro growth inhibition assay of P. falciparum (KI). The determination of IC50 values against erythrocytic stages of P. falciparum was carried out in duplicate using the [^3H]-hypoxanthine incorporation assay.^58,59

For data set [8], the system named is Trypanosoma cruzi. As to the kind of experiment: In vitro activity against T. cruzi. The class given is cell-based. The following applies: for IC50: Trypanosoma cruzi.
From the text: as §1, §2

For data set [9], the system named is Leishmania donovani. As to conditions: literature ref. 29; cited from earlier work.
The test system of data set [10] is Leishmania donovani. The following applies: literature ref. 29; cited from earlier work. The source holds these as a separate data set.
The mark [11] stands for this setting: average of duplicate determinations, read-out: IC50 against T. cruzi.

Several values for one entry are separate records, joined by “and”; a condition that tells them apart may be missing. Equal entries are not always repeated. Where two headings read alike, the source gives them in different places.

As for `O=C1N=CN=C2C([C@@H]3O[C@H](CO)[C@@H](O)[C@H]3O)=CN=C12` [9-deaza-inosine], in data set [1], the “Activity against L. donovani in a squirrel monkey in vivo model” value was “activity”. For the same molecule, the “Activity against T.b. rhodesiense” value in [2] is “active”. In data set [3], the “Activity against T.b gambiense” value is listed as “active”.
Turning to `CSC[C@H]1O[C@@H](n2cnc3c(N)nc(F)nc32)[C@H](O)[C@@H]1O` [ACT-51, 5′-Deoxy-2-fluoro-5′-(methylthio)adenosine], in data set [4], the “Activity against Trypanosoma brucei (in words)” value is on record as “strong activity”. The “Activity against L. donovani (in words)” value in [5] is given as “strong activity”. The 50% inhibitory concentration (IC50) was 584 nM in [6] and 2600 nM in [8] (setting [11]). For the same molecule, the “Activity against P. falciparum (in words)” value in data set [7] is “strong activity”.
Regarding `CSC[C@H]1O[C@@H](n2cnc3c(N(C)N=O)nc(F)nc32)[C@H](O)[C@@H]1O` [ACT-88, 5′-Deoxy-2-fluoro-N^6-methyl-5′-methylthio-N^6-nitrosoadenosine], the “Activity against Trypanosoma brucei (in words)” value in data set [4] is reported as “absence”. Further, the “Activity against L. donovani (in words)” value in data set [5] is listed as “absence”. Further, the concentration for half-maximal inhibition (IC50) in data set [7] (Plasmodium falciparum, read-out: IC50 against Plasmodium falciparum) came to 110 nM. The “Selectivity index for P. falciparum (SIp)” value in data set [7] (ratio IC50 (L6)/IC50 (P. falciparum)) was 983 and 1254. The “Activity against Trypanosoma cruzi (in words)” value in data set [8] was “absence”.
In the case of `Nc1nc(Cl)c2ccn(C3O[C@H](CO)[C@@H](O)[C@H]3O)c2n1` (stereo partly drawn) [ACT-91, 2-Amino-6-chloro-7-deaza-9-(D-ribofuranosyl)purine], the melting point was 172 to 173 °C. Also, in [4] (Trypanosoma brucei, STIB900, average of duplicate determinations, read-out: IC50 against T.b. rhodesiense), the IC50 came out at 130 nM. Moreover, the IC50 in [5] amounted to 60 nM. The “Selectivity index for L. donovani (SIL)” value in data set [5] (ratio IC50 (L6)/IC50 (L. donovani)) was 2720 and 2717. The IC50 in [8] (setting [11]) is 3400 nM. In addition, the “Selectivity index for T. cruzi (SIC)” value in data set [8] (ratio IC50 (L6)/IC50 (T. cruzi)) is 48.
On to `CC(=O)O[C@@H]1[C@H](OC(C)=O)[C@@H](CN=[N+]=[N-])O[C@H]1n1cnc2c(N)nc(Cl)nc21` [Compound 41, 2′,3′-Di-O-Acetyl-5′-azido-2-chloro-5′-deoxyadenosine], for which the melting point lay in the range of 75 to 77 °C.
`CC(=O)O[C@@H]1[C@H](OC(C)=O)[C@@H](CN2C(=O)c3ccccc3C2=O)O[C@H]1n1cnc2c(N)nc(F)nc21` [Compound 44, 2′,3′-Di-O-acetyl-5′-deoxy-2-fluoro-5′-phthalimidoadenosine] came in with a melting point of 237 to 239 °C.
Still for that read-out and setting: the same measure for `CC(=O)O[C@@H]1[C@H](OC(C)=O)[C@@H](CN2C(=O)c3ccccc3C2=O)O[C@H]1n1cnc2c(N)nc(Cl)nc21` [Compound 45, 2′,3′-Di-O-acetyl-2-chloro-5′-deoxy-5′-phthalimidoadenosine]: 256 °C; for `CC(=O)O[C@@H]1[C@H](OC(C)=O)[C@@H](CI)O[C@H]1n1cnc2c(N)nc(F)nc21` [Compound 46, 2′,3′-Di-O-acetyl-5′-deoxy-2-fluoro-5′-iodoadenosine]: 181 to 182 °C.
On the same count and under the same terms, in the case of `CC(=O)O[C@@H]1[C@H](OC(C)=O)[C@@H](CI)O[C@H]1n1cnc2c(N)nc(Cl)nc21` [Compound 47, 2′,3′-Di-O-acetyl-2-chloro-5′-deoxy-5′-iodoadenosine] it was 93 °C; in that of `[N-]=[N+]=NC[C@H]1O[C@@H](n2cnc3c(N)nc(Cl)nc32)[C@H](O)[C@@H]1O` [Compound 49, 5′-Azido-2-chloro-5′-deoxyadenosine], 222 to 223 °C.
With `CSC[C@H]1O[C@@H](n2cnc3c(N)nc(NN)nc32)[C@H](O)[C@@H]1O` [Compound 58, 5′-Deoxy-2-hydrazino-5′-(methylthio)adenosine], the melting point was 168 to 169 °C.
Same read-out and setting: in the case of `CSC[C@H]1O[C@@H](n2cnc3c(N)nc(C#N)nc32)[C@H](O)[C@@H]1O` [Compound 71, 2-Cyano-5′-deoxy-5′-(methylthio)adenosine] it was 184 to 185 °C; in that of `CNc1nc(C#N)nc2c1ncn2[C@@H]1O[C@H](C)[C@@H](O)[C@H]1O` [Compound 72, 2-Cyano-5′-deoxy-N^6-methyladenosine], 193 to 194 °C.
`CNc1nc(C#N)nc2c1ncn2[C@@H]1O[C@H](CSC)[C@@H](O)[C@H]1O` [Compound 73, 2-Cyano-5′-deoxy-N^6-methyl-5′-(methylthio)adenosine] had a melting point of 193 to 194 °C.
`O=c1[nH]cnc2c([C@@H]3O[C@H](CO)[C@@H](O)[C@H]3O)n[nH]c12` [Formycin B]: the “Activity against T.b. rhodesiense” value in data set [2] is “active”. Further, the “Therapeutic activity in a hamster model” value in data set [9] is “therapeutically active”. Also, the “Activity against T.b gambiense” value in data set [3] is “active”. The “Inhibition of Leishmania donovani in vitro” value in data set [10] is “inhibits”.
In the case of `O=C(Cn1ccnc1[N+](=O)[O-])NCc1ccccc1` [benznidazole, reference compound], the IC50 in [8] (standard drug listed in the table, read-out: IC50 against T. cruzi (standard)) was 427 nM.
In the case of `CCCCCCCCCCCCCCCCOP(=O)([O-])OCC[N+](C)(C)C` [miltefosine, reference compound], the concentration for half-maximal inhibition (IC50) in data set [5] amounted to 122 nM.
